The source of these data is patent US5866567A, “Diazepinones, their production and use” (Takeda Chemical Industries, Ltd., priority 1995, dated 1999).

Counter-ions that a name gives are not always drawn.

For one assay, the target named is T1, Human GnRH receptor (Homo sapiens, UniProt P30968).
T1 construct: expressed in transfected cells; host or cells: CHO (Chinese hamster ovary) cells, membrane fraction
T1 sequence (P30968 1-328): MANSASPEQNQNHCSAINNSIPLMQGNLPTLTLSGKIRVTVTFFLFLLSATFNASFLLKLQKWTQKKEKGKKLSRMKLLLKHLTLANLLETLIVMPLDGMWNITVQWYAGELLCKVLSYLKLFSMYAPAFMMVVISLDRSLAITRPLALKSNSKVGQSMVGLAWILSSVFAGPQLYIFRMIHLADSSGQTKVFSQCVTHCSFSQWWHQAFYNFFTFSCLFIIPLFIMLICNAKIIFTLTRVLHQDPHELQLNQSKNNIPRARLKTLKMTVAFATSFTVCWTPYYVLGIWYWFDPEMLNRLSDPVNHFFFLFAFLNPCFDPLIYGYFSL
Put plainly: Human GnRH receptor binding inhibition assay (125I-leuprolerin, membrane fraction of CHO cells expressing human GnRH receptors). The note with it: CHO cell membrane fraction with human GnRH receptors, 25° C., 60 minutes, concentration series, Hill plot, read-out: Binding inhibitory activity (IC50). As for the experimental part:
Human GnRH receptor binding inhibition assay
(A) Preparation of ^125 I-leuprolerin
Ten (10) μl of 3×10^-4 M aqueous leuprolerin solution and 10 μl of 0.01 mg/ml lactoperoxidase solution were taken in a tube, and 10 μl of Na^125 I solution (37 MBq) was added. After stirring, 10 μl of 0.001% H2 O2 was added and the reaction was conducted at room temperature for 20 minutes. The reaction was stopped by adding 700 μl of 0.05% TFA solution, and the reaction mixture was purified by reversed HPLC. The HPLC parameters are shown below. The retention time of ^125 I-leuprolerin was 26-27 minutes.
Column: TSKgel ODS-80™ CTR (4.6 mm×10 cm)
Eluent: Solvent A (0.05%TFA) Solvent B (40%CH3 CN-0.05%TFA)
Min. 0 (100% Solvent A)--Min. 3 (100% Solvent A)--Min. 7 (50% Solvent A+50% Solvent B)--Min. 40 (100% Solvent B) Elution temperature: room temperature Elution flow rate: 1 ml/min.
CHO cells (10^9 cells) with human GnRH receptors expressed were floated on phosphate-buffered saline containing EDTA (PBS-EDTA) and centrifuged at 100×g for 5 minutes. To the pellet obtained was added 10 ml of a cell homogenate buffer (10 mM NaHCO3, 5 mM EDTA, pH 7.5) and the mixture was homogenized using a Polytron homogenizer. The homogenate was centrifuged at 400×g for 15 minutes and the supernatant was taken in an ultracentrifuge tube and recentrifuged at 100,000×g for 1 hour. The membrane fraction thus obtained as a pellet was suspended in 2 ml of assay buffer and centrifuged at 100,000×g for 1 hour. The membrane fraction recovered was resuspended in 20 ml of assay buffer and the suspension was portioned, stored at -80° C., and thawed when needed.
(C) Determination of the ^125 I-leuprolerin binding inhibition rate
The membrane fraction prepared in Step (B) was diluted with assay buffer to 200 μg/ml and the dilution was portioned into tubes, 188 μl per tube. Then, 2 μl of 2 mM solution of the test compound in 60% DMSO and 10 μl of 38 nM ^125 I-leuprolerin solution in the same solvent were simultaneously added to the tubes. To determine the maximum binding, a test mixture of 2 μl of 60% DMSO and 10 μl of 38 nM ^125 I-leuprolerin solution in the same solvent was prepared. For the determination of nonspecific binding, a test mixture of 2 μl of 100 μM leuprolerin solution in 60% DMSO and 10 μl of 38 nM solution of ^125 I-leuprolerin in the same solvent was also prepared. The mixtures were respectively allowed to react at 25° C. for 60 minutes and the reaction product in each tube was filtered through a poly(ethylene imine)-treated Whatman glass filter (GF-F) under suction. The radioactivity of ^125 I-leuprolerin remaining on the filter was determined using a γ-counter.
Using the measured values, the following equation was calculated to find the binding inhibition rate for each test compound.
Binding inhibition (%)=(TB-SB)/(TB-NSB)×100
[SB: radioactivity with the compound added
TB: maximum bound radioactivity
NBS: nonspecifically bound radioactivity]
Using a concentration series of each test compound, the concentration of the compound which inhibited the binding by 50% (IC50) was calculated by Hill plot.

The next assay concerns GnRH. The note with it: relative to native GnRH; cited from earlier work.
For assay [1] the following is noted: repeated administration, receptor down-regulation; cited from earlier work.

As usually defined, the IC50 is the concentration that gives 50% inhibition. Take `C[C@H](NC(=O)Nc1ccc(CN2C(=O)[C@H]3CCC[C@H]3N(C(=O)CN3C(=O)c4ccccc4C3=O)c3ccccc32)cc1)c1ccccc1` (relative stereo) [Example 28, (3aR*,10aS*)-9-[4-[3-((S)-1-Phenylethyl)ureido]-benzyl]-4-(phthalimidoacetyl)-2,3,3a,4,9,10a-hexahydrobenzo[b]cyclopenta[e][1,4]diazepin-10(1H)-one]: the IC50 on Human GnRH receptor came out at 300 nM.

As for `O=C(NCCc1ccccc1)Nc1ccc(CN2C(=O)[C@H]3CCC[C@H]3N(C(=O)CN3C(=O)c4ccccc4C3=O)c3ccccc32)cc1` (relative stereo) [Example 30, (3aR*,10aS*)-9-[4-[3-(2-Phenylethyl)ureido]benzyl]-4-(phthalimidoacetyl)-2,3,3a,4,9,10a-hexahydrobenzo[b]-cyclopenta[e][1,4]diazepin-10(1H)-one], the IC50 at Human GnRH receptor was 40 nM.

Regarding `O=C(NCc1ccc(F)cc1)Nc1ccc(CN2C(=O)[C@H]3CCC[C@H]3N(C(=O)CN3C(=O)c4ccccc4C3=O)c3ccccc32)cc1` (relative stereo) [Example 31, (3aR*,10aS*)-9-[4-[3-(4-Fluorobenzyl)ureido]benzyl]-4-(phthalimidoacetyl)-2,3,3a,4,9,10a-hexahydrobenzo[b]-cyclopenta[e][1,4]diazepin-10(1H)-one], on Human GnRH receptor, the IC50 amounted to 30 nM. Still for that read-out and setting: the figure for `COc1ccc(CNC(=O)Nc2ccc(CN3C(=O)[C@H]4CCC[C@H]4N(C(=O)CN4C(=O)c5ccccc5C4=O)c4ccccc43)cc2)cc1` (relative stereo) [Example 32, (3aR*,10aS*)-9-[4-[3-(4-Methoxybenzyl)ureido]-benzyl]-4-(phthalimidoacetyl)-2,3,3a,4,9,10a-hexahydro-benzo[b]cyclopenta[e][1,4]diazepin-10(1H)-one] is 40 nM; for `O=C(NCc1ccncc1)Nc1ccc(CN2C(=O)[C@H]3CCC[C@H]3N(C(=O)CN3C(=O)c4ccccc4C3=O)c3ccccc32)cc1` (relative stereo) [Example 34, (3aR*,10aS*)-4-(Phthalimidoacetyl)-9-[4-[3-(4-pyridylmethyl)ureido]benzyl]-2,3,3a,4,9,10a-hexahydrobenzo[b]cyclopenta[e][1,4]diazepin-l0(1H)-one hydrochloride] it is 80 nM. For the molecule Leuprolerin acetate, in the assay on GnRH, the “times as active as native GnRH” value is 20-50 times. In addition, the production of testosterone result in assay [1] is recorded as “cut down on the production of testosterone to the castrated level”.
